Source: US20230013669A1, “Antibacterial Treatment Using a Cannabinoid and an Active Agent” (priority 2019, published 2023)
“And” between values parts separate entries of the source, which are not always exact repeats. Equal values may be shown once. Read-outs that look alike come from different tables or passages of the source.

Legend:
[1] = system: Acinetobacter baumannii 03.021.1 (GN_039), Colistin resistant; experiment: Synergy of cannabidiol with cell-wall disrupting agent (CBD MIC in combination, FICI); format: cell-based; settings: for MIC: Acinetobacter baumannii
Method: (§1) The compounds were stored short term at 4° C.
(§2) Analysis was performed using Microsoft Excel.

[2] = system: Pseudomonas aeruginosa ATCC 27853 (GN_042); experiment: as above; format: cell-based
Method: as §1, §2

[3] = Example 9, GN_039, listed as CBD
[4] = CBD with Ceftazidime, Pseudomonas aeruginosa ATCC 27853

`C=C(C)C1CCC(C)=CC1c1c(O)cc(CCCCC)cc1O` (stereo not shown) [Cannabidiol, 2-[3-methyl-6-(1-methylethenyl)-2-cyclohexen-1-yl]-5-pentyl-1,3-benzenediol] was tested, and the MIC ([1]; read-out: CBD MIC with MCC_00636 at concentration 0.25 μg/mL, Example 8, GN_039) was 4 µg/mL, the MIC ([1]; read-out: CBD MIC with MCC_00636 at concentration 0.5 μg/mL, Example 8, GN_039) was 0.000977 µg/mL and the MIC ([1]; read-out: CBD MIC with MCC_00636 at concentration 1 μg/mL, Example 8, GN_039) was 0.000977 µg/mL. It also gave an MIC ([1]; read-out: CBD MIC with MCC_00636 at concentration […], Example 8, GN_039) of 4 µg/mL, an MIC ([1]; read-out: CBD MIC with MCC_09222 at concentration 16 μg/mL, Example 9, GN_039) of 1 µg/mL and an MIC ([1]; read-out: CBD MIC with MCC_09222 at concentration 32 μg/mL, Example 9, GN_039) of 0.5 µg/mL. The MIC ([1]; read-out: CBD MIC with MCC_09222 at concentration 64 μg/mL, Example 9, GN_039) was 0.000977 µg/mL, the MIC ([1]; read-out: CBD MIC with MCC_09222 at concentration 128 μg/mL, Example 9, GN_039) was 0.000977 µg/mL and the “cannabidiol combined with Polymyxin B: synergy” value ([1]; Example 8) was “synergy”. For the same compound, the “cannabidiol in combination with MCC_09222: synergy” value ([1]; Example 9) was “synergistic effect”, the “CBD MIC with MCC_09222 at concentration 16 μg/mL” value [1, 3] was 2 µg/mL and the “CBD MIC with MCC_09222 at concentration 32 μg/mL” value [1, 3] was 1 µg/mL. The “CBD MIC with Aztreonam” value ([2]; Aztreonam at 4 μg/mL) was 0.001 µg/mL, the FICI ([2]; CBD with Aztreonam at 0.25 μg/mL, CBD MIC taken as 256 μg/mL) was 1.0625 and the FICI ([2]; CBD with Aztreonam at 1 μg/mL, CBD MIC taken as 256 μg/mL) was 1.25. The FICI ([2]; CBD with Aztreonam at 2 μg/mL, CBD MIC taken as 256 μg/mL) was 0.5004 and 0.5039, the FICI ([2]; CBD with Aztreonam at 4 μg/mL, CBD MIC taken as 256 μg/mL) was 1 and the FICI range ([2]; CBD with Aztreonam, Synergy table (Table 76)) was 0.5. The FICI range ([2]; CBD with Aztreonam, all tested concentrations (Table 74)) was 0.5-1.25, the FICI ([2]; CBD with Cefepime at 0.015 μg/mL, CBD MIC taken as 256 μg/mL) was 1 and the FICI ([2]; CBD with Cefepime at 0.031 μg/mL, CBD MIC taken as 256 μg/mL) was 1. It also gave an FICI ([2]; CBD with Cefepime at 0.062 μg/mL, CBD MIC taken as 256 μg/mL) of 1, an FICI ([2]; CBD with Cefepime at 0.25 μg/mL, CBD MIC taken as 256 μg/mL) of 1.001 and an FICI ([2]; CBD with Cefepime at 0.5 μg/mL, CBD MIC taken as 256 μg/mL) of 1.002. The FICI range ([2]; CBD with Cefepime, all tested concentrations (Table 79)) was 1-1, the FICI ([2]; CBD with Cefotetan at 4 μg/mL, CBD MIC taken as 256 μg/mL) was 1.016 and the FICI ([2]; CBD with Cefotetan at 16 μg/mL, CBD MIC taken as 256 μg/mL) was 1.0625. The FICI ([2]; CBD with Cefotetan at 64 μg/mL, CBD MIC taken as 256 μg/mL) was 1.25, the FICI ([2]; CBD with Cefotetan at 128 μg/mL, CBD MIC taken as 256 μg/mL) was 1.5 and the “FICI range (MIC table)” value ([2]; CBD with Cefotetan, Pseudomonas aeruginosa ATCC 27853) was 1.02-1.5. The FICI ([2]; CBD with Ceftazidime at 0.25 μg/mL, Pseudomonas aeruginosa ATCC 27853) was 1.0625, the FICI ([2]; CBD with Ceftazidime at 1 μg/mL, Pseudomonas aeruginosa ATCC 27853) was 1.25 and the FICI ([2]; CBD with Ceftazidime at 2 μg/mL, Pseudomonas aeruginosa ATCC 27853) was 0.5. For the same compound, the FICI ([2]; CBD with Ceftazidime at 4 μg/mL, Pseudomonas aeruginosa ATCC 27853) was 1, the “FICI range (MIC table)” value [2, 4] was 0.5-1.25 and the “FICI range (Synergy table)” value [2, 4] was 0.5. It also gave an FICI ([2]; CBD with Cefuroxime at 4 μg/mL, Pseudomonas aeruginosa ATCC 27853) of 1.016, an FICI ([2]; CBD with Cefuroxime at 16 μg/mL, Pseudomonas aeruginosa ATCC 27853) of 1.0625 and an FICI ([2]; CBD with Cefuroxime at 64 μg/mL, Pseudomonas aeruginosa ATCC 27853) of 1.25. It also gave an FICI ([2]; CBD with Cefuroxime at 128 μg/mL, Pseudomonas aeruginosa ATCC 27853) of 1.5, an FICI ([2]; CBD with Colistin at 0.031 μg/mL, Pseudomonas aeruginosa ATCC 27853) of 1.031 and an FICI ([2]; CBD with Colistin at 0.062 μg/mL, Pseudomonas aeruginosa ATCC 27853) of 1.062. It also gave an FICI ([2]; CBD with Colistin at 0.25 μg/mL, Pseudomonas aeruginosa ATCC 27853) of 1.25, an FICI ([2]; CBD with Colistin at 0.5 μg/mL, Pseudomonas aeruginosa ATCC 27853) of 1.5 and an FICI ([2]; CBD with Colistin at 1 μg/mL, Pseudomonas aeruginosa ATCC 27853) of 1. The “FICI range (MIC table)” value ([2]; CBD with Colistin, Pseudomonas aeruginosa ATCC 27853) was 1-1.5, the “FICI range (MIC table)” value ([2]; CBD with MCC_6442, Pseudomonas aeruginosa ATCC 27853) was 1-1.5 and the FICI ([2]; CBD with MCC_6442 at 0.25 μg/mL, Pseudomonas aeruginosa ATCC 27853) was 1.0625. For the same compound, the FICI ([2]; CBD with MCC_6442 at 1 μg/mL, Pseudomonas aeruginosa ATCC 27853) was 1.25, the FICI ([2]; CBD with MCC_6442 at 2 μg/mL, Pseudomonas aeruginosa ATCC 27853) was 1.5 and the FICI ([2]; CBD with MCC_6442 at 4 μg/mL, Pseudomonas aeruginosa ATCC 27853) was 1. It also gave an FICI ([2]; CBD with Octapeptin C4 at 0.25 μg/mL, CBD MIC taken as 256 μg/mL) of 1.0625, an FICI ([2]; CBD with Octapeptin C4 at 0.5 μg/mL, CBD MIC taken as 256 μg/mL) of 1.0625 and an FICI ([2]; CBD with Octapeptin C4 at 1 μg/mL, CBD MIC taken as 256 μg/mL) of 1.25. The FICI ([2]; CBD with Octapeptin C4 at 2 μg/mL, CBD MIC taken as 256 μg/mL) was 1.25 and 1.5, the FICI ([2]; CBD with Octapeptin C4 at 4 μg/mL, CBD MIC taken as 256 μg/mL) was 0.5 and 1 and the FICI ([2]; CBD with Octapeptin C4 at […], CBD MIC taken as 256 μg/mL) was 1.016. For the same compound, the FICI range ([2]; CBD with Spero SPR206, 1st of 3 experiments) was 1-4, the FICI range ([2]; CBD with Spero SPR206, 3rd of 3 experiments) was 1.13-5 and the FICI ([2]; CBD with Spero SPR206 at 0.25 μg/mL, 1st of 3 experiments, CBD MIC taken as 256 μg/mL) was 1.25. For the same compound, the FICI ([2]; CBD with Spero SPR206 at 0.25 μg/mL, 3rd of 3 experiments, CBD MIC taken as 256 μg/mL) was 1.25, the FICI ([2]; CBD with Spero SPR206 at 0.5 μg/mL, 1st of 3 experiments, CBD MIC taken as 256 μg/mL) was 1.5 and the FICI ([2]; CBD with Spero SPR206 at 0.5 μg/mL, 3rd of 3 experiments, CBD MIC taken as 256 μg/mL) was 1.5. For the same compound, the FICI ([2]; CBD with Spero SPR206 at 1 μg/mL, 1st of 3 experiments, CBD MIC taken as 256 μg/mL) was 1, the FICI ([2]; CBD with Spero SPR206 at 1 μg/mL, 3rd of 3 experiments, CBD MIC taken as 256 μg/mL) was 2 and the FICI ([2]; CBD with Spero SPR206 at 2 μg/mL, 1st of 3 experiments, CBD MIC taken as 256 μg/mL) was 2. The FICI ([2]; CBD with Spero SPR206 at 2 μg/mL, 3rd of 3 experiments, CBD MIC taken as 256 μg/mL) was 3, the FICI ([2]; CBD with Spero SPR206 at 4 μg/mL, 1st of 3 experiments, CBD MIC taken as 256 μg/mL) was 4 and the FICI ([2]; CBD with Spero SPR206 at 4 μg/mL, 3rd of 3 experiments, CBD MIC taken as 256 μg/mL) was 5. The FICI ([2]; CBD with Ticarcillin at 2 μg/mL, Pseudomonas aeruginosa ATCC 27853) was 1.0625, the FICI ([2]; CBD with Ticarcillin at 4 μg/mL, Pseudomonas aeruginosa ATCC 27853) was 1.25 and the FICI ([2]; CBD with Ticarcillin at 8 μg/mL, Pseudomonas aeruginosa ATCC 27853, listed as CBD) was 1.25 and 1.5. For the same compound, the FICI ([2]; CBD with Ticarcillin at 16 μg/mL, Pseudomonas aeruginosa ATCC 27853, listed as CBD) was 0.5 and 1, the FICI ([2]; CBD with Ticarcillin at 32 μg/mL, Pseudomonas aeruginosa ATCC 27853, listed as CBD) was 1 and 2 and the FICI ([2]; CBD with Ticarcillin at 64 μg/mL, Pseudomonas aeruginosa ATCC 27853, listed as CBD) was 2 and 4. For the same compound, the “FICI range (Synergy table)” value ([2]; CBD with Ticarcillin, Pseudomonas aeruginosa ATCC 27853) was 0.5, the “CBD MIC with Cefotetan” value ([2]; Cefotetan at 4 μg/mL) was greater than 32 µg/mL and the “CBD MIC with Cefotetan” value ([2]; Cefotetan at 4 μg/mL, Pseudomonas aeruginosa ATCC 27853) was greater than 256 µg/mL. The “CBD MIC with Cefotetan” value ([2]; Cefotetan at 8 μg/mL) was greater than 32 µg/mL, the “CBD MIC with Cefotetan” value ([2]; Cefotetan at 8 μg/mL, Pseudomonas aeruginosa ATCC 27853) was greater than 256 µg/mL and the “CBD MIC with Cefotetan” value ([2]; Cefotetan at 16 μg/mL) was greater than 32 µg/mL. The “CBD MIC with Cefotetan” value ([2]; Cefotetan at 16 μg/mL, Pseudomonas aeruginosa ATCC 27853) was greater than 256 µg/mL, the “CBD MIC with Cefotetan” value ([2]; Cefotetan at 32 μg/mL) was greater than 32 µg/mL and the “CBD MIC with Cefotetan” value ([2]; Cefotetan at 32 μg/mL, Pseudomonas aeruginosa ATCC 27853) was greater than 256 µg/mL. The “CBD MIC with Cefotetan” value ([2]; Cefotetan at 64 μg/mL) was greater than 32 µg/mL.
